Earlier results, collected in patent publication US20150150473A1, “Drug-Enhanced Neurofeedback” (McLean Hospital Corporation, priority 2008, published 2015).

Conditions: in vivo

Structure (SMILES): N[C@@H]1CON=C1O [DCS, d-cycloserine]
- half-life: approximately 10 hours
